Reference: patent publication US9290487B2, “Pharmaceutical composition for treating diabetes” (Ajinomoto Co., Inc., priority 2011, dated 2016)

Molecular target: human GYS1 (glycogen synthase) (Homo sapiens (Human), UniProt P13807)
Assay: Measurement of glycogen synthase activity (coupled pyruvate kinase/lactate dehydrogenase assay, absorbance at 340 nm)
Assay type: biochemical
Settings: concentration inducing relative activity of 50% (100% = Ex. 1 of WO/2011/058154 at 10 μM); incubation at 37° C. for 20 minutes (Examples 11 to 75)
Method: A human GYS1 expression plasmid (pCDNA3.1(+)-hGYS1) was constructed by the following method. Using a human skeletal muscle cDNA of Human MTC Panel I (Takara Bio Inc., 636742) as a template, a human GYS1 gene was amplified by a PCR method using cloning primers (Forward Primer: ATGCCTTTAAACCGCAC (SEQ ID NO: 1), Reverse Primer: TTAGTTACGCTCCTCGC (SEQ ID NO: 2)). Using the amplified human GYS1 sequence as a template, a restriction enzyme sequence was added by a PCR method using sub-cloning primers (Forward Primer: […] (SEQ ID NO: 3), Reverse Primer: […] (SEQ ID NO: 4)). Then, the human GYS1 gene was introduced between a Xho I site and a Xba I site of pCDNA3.1(+) (Invitrogen Corporation, V790-20).
Glycogen synthase was prepared by the following method according to the published article (THE JOURNAL OF BIOLOGICAL CHEMISTRY Vol. 269, No. 41, 25534-25542, 1994). Human kidney-derived HEK293T cells were seeded in a dish (Thermo Fisher Scientific Inc., 168381) using a 10% FBS-containing DMEM (Nacalai Tesque, Inc., 0845874) medium, and cultured overnight. Then, using Lipofectamine LTX (Invitrogen Corporation, 15338-100), the human GYS1 expression vector was transfected according to the attached manual. After culturing under conditions of 37° C. and 5% CO2 for 2 days, the resultant was dissolved in a lysis buffer (50 mM Tris-HCl (pH 8.0), 10 mM EDTA, 2 mM EGTA, 100 mM NaF, 1 mM PMSF, 1 mM DTT, 1× Complete (Roche Diagnostics K. K., 1873580)), homogenized, and then centrifuged at 16000×g at 4° C. for 15 minutes. To the precipitated fraction, a lysis buffer was added. Re-dissolved fractions were used as glycogen synthase for evaluation.
The glycogen synthase activity was measured by the following method. To a polystyrene 96-well plate, a solution containing 30 mM glycylglycine (pH 7.3), 40 mM KCl, 20 mM MgCl2, 9.2% DMSO containing one of the test compounds at various concentrations, and 10 mM glucose-6-phosphate (Sigma-Aldrich Corporation, G7879) was added by 12 μL/well.
Next, a substrate solution containing 30 mM glycylglycine (pH 7.3), 4.3 mg/mL of glycogen (Sigma-Aldrich Corporation, G8876), 21.6 mM UDP-glucose (Sigma-Aldrich Corporation, U4625), 21.6 mM phosphoenolpyruvic acid (Sigma-Aldrich Corporation, P0564), and 4.05 mM NADH (Sigma-Aldrich Corporation, N8129) was added by 18 μL/well.
Further, an enzyme solution containing 50 mM Tris-HCl (pH 8.0), 27 mM DTT (Nacalai Tesque, Inc., 14128-04), 0.2 mg/mL of bovine serum albumin, 0.17 mg/mL of the glycogen synthase, 1.5 μL of a pyruvate kinase/lactate dehydrogenase solution (Sigma-Aldrich Corporation, P0294) was added by 18 μL/well to prepare a reaction solution. After the reaction solution was incubated (at 30° C. for 25 minutes for Examples 1 to 10, at 37° C. for 20 minutes for Examples 11 to 75), the absorbance at 340 nm was measured using Benchmark Plus (Bio-Rad Laboratories, Inc.).
The activities of the test compounds were calculated by the following method. The change in the absorbance (ΔA340) was calculated by subtracting the absorbance at 340 nm of the reaction solution containing the compound and DMSO from the absorbance at 340 nm of a reaction solution not containing the compound but containing only DMSO. The ΔA340 of the reaction solution containing the compound of Example 1 in WO/2011/058154 at the final concentration of 10 μM was taken as 100% to calculate the relative activity (%) of the test compounds at various concentrations. EC50 representing the concentration of the compound which induces an increase in the relative activity to 50% was calculated using XLfit (idbs).

Chain of human GYS1 (glycogen synthase) (P13807 whole entry): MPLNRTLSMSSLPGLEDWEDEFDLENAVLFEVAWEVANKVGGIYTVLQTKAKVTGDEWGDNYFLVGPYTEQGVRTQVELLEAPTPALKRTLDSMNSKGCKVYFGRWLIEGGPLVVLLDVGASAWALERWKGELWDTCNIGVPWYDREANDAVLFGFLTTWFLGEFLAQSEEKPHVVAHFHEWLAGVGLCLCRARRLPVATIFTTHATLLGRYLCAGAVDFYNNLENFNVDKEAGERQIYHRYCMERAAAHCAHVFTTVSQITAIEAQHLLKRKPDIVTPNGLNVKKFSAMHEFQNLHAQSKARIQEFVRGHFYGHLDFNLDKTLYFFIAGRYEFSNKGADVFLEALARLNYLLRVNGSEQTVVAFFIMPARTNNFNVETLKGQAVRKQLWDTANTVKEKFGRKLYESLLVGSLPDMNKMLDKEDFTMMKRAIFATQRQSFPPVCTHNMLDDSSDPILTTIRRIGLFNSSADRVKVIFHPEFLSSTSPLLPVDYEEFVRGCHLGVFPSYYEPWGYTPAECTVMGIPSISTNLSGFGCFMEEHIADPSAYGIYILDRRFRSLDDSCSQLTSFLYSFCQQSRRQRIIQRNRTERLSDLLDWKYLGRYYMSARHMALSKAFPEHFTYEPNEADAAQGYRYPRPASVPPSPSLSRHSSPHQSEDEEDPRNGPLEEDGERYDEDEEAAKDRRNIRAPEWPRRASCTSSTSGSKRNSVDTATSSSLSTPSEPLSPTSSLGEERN

In order of falling EC50:
1. COCc1coc2c(-c3ccc(OCc4cccc(C(=O)N5CCC[C@H]5C(=O)O)c4)cc3)cc(F)c(F)c12 [compound of Ex. 45, 1-[3-({4-[4,5-difluoro-3-(methoxymethyl)-1-benzofuran-7-yl]phenoxy}methyl)benzoyl]-L-proline]  800 nM
2. N#Cc1cc2c(F)c(F)cc(-c3ccc(OCc4cccc(C(=O)N5CCC[C@H]5C(=O)O)c4)cc3)c2s1 [compound of Ex. 67, 1-(3-{[4-(2-cyano-4,5-difluoro-1-benzothien-7-yl)phenoxy]methyl}benzoyl)-L-proline]  590 nM
3. O=C(O)[C@@H]1CSCN1C(=O)c1cccc(COc2ccc(-c3cc(F)c(F)c4ccoc34)cc2)c1 [compound of Ex. 68, (4R)-3-(3-{[4-(4,5-difluoro-1-benzofuran-7-yl)phenoxy]methyl}benzoyl)-1,3-thiazolidine-4-carboxylic acid]  340 nM
4. Cc1cc2c(F)c(F)cc(-c3ccc(OCc4cccc(C(=O)N5CCC[C@H]5C(=O)O)c4)cc3)c2s1 [compound of Ex. 62, 1-(3-{[4-(4,5-difluoro-2-methyl-1-benzothien-7-yl)phenoxy]methyl}benzoyl)-L-proline]  270 nM
5. N#Cc1cc2c(F)c(F)cc(-c3ccc(OCc4cccc(C(=O)N5CCC[C@H]5C(=O)O)c4)cc3)c2o1 [compound of Ex. 54]  260 nM
6. C[C@@H](C(=O)O)N(C)C(=O)c1cccc(COc2ccc(-c3cc(F)c(F)c4ccoc34)cc2)c1 [compound of Ex. 63, N-(3-{[4-(4,5-difluoro-1-benzofuran-7-yl)phenoxy]methyl}benzoyl)-N-methyl-L-alanine]  220 nM
7. COCc1cc2c(F)c(F)cc(-c3ccc(OCc4cccc(C(=O)N5CCC[C@H]5C(=O)O)c4)cc3)c2s1 [compound of Ex. 74, 1-[3-({4-[4,5-difluoro-2-(methoxymethyl)-1-benzothien-7-yl]phenoxy}methyl)benzoyl]-L-proline]  200 nM
8. O=C(O)[C@@H]1CCCN1C(=O)c1cccc(COc2ccc(-c3cc(F)c(F)c4ccoc34)cc2F)c1 [compound of Ex. 60, 1-(3-{[4-(4,5-difluoro-1-benzofuran-7-yl)-2-fluorophenoxy]methyl}benzoyl)-L-proline]  160 nM
9. N#CCc1coc2c(-c3ccc(OCc4cccc(C(=O)N5CCC[C@H]5C(=O)O)c4)cc3)cc(F)c(F)c12 [compound of Ex. 46, 1-[3-({4-[3-(cyanomethyl)-4,5-difluoro-1-benzofuran-7-yl]phenoxy}methyl)benzoyl]-L-proline]  150 nM
10. C#CCOc1cc(-c2ccc(OCc3cccc(C(=O)N4CCC[C@H]4C(=O)O)c3)cc2)cc(F)c1F [compound of Ex. 47, 1-[3-({[3′,4′-difluoro-5′-(prop-2-yn-1-yloxy)biphenyl-4-yl]oxy}methyl)benzoyl]-L-proline]  150 nM
11. O=C(O)[C@@H]1CCN1C(=O)c1cccc(COc2ccc(-c3cc(F)c(F)c4ccoc34)cc2)c1 [compound of Ex. 59, (2S)-1-(3-{[4-(4,5-difluoro-1-benzofuran-7-yl)phenoxy]methyl}benzoyl)azetidine-2-carboxylic acid]  150 nM
12. NC(=NO)c1cc2c(F)c(F)cc(-c3ccc(OCc4cccc(C(=O)N5CCC[C@H]5C(=O)O)c4)cc3)c2o1 [compound of Ex. 57, 1-{3-[(4-{2-[amino(hydroxyimino)methyl]4,5-difluoro-1-benzofuran-7-yl}phenoxy)methyl]benzoyl}-L-proline]  140 nM
13. O=C(O)[C@@H]1C=CCN1C(=O)c1cccc(COc2ccc(-c3cc(F)c(F)c4ccoc34)cc2)c1 [compound of Ex. 64, (2S)-1-(3-{[4-(4,5-difluoro-1-benzofuran-7-yl)phenoxy]methyl}benzoyl)-2,5-dihydro-1H-pyrrole-2-carboxylic acid]  140 nM
14. N#CCOc1cc(-c2ccc(OCc3cccc(C(=O)N4CCC[C@H]4C(=O)O)c3)cc2)cc(F)c1F [compound of Ex. 48, 1-[3-({[3′-(cyanomethoxy)-4′,5′-difluorobiphenyl-4-yl]oxy}methyl)benzoyl]-L-proline]  120 nM
15. Cc1csc2c(-c3ccc(OCc4cccc(C(=O)N5CCC[C@H]5C(=O)O)c4)cc3)cc(F)c(F)c12 [compound of Ex. 55, 1-(3-{[4-(4,5-difluoro-3-methyl-1-benzothien-7-yl)phenoxy]methyl}benzoyl)-L-proline]  85 nM
16. COCc1cc2c(F)c(F)cc(-c3ccc(OCc4cccc(C(=O)N5CCC[C@H]5C(=O)O)c4)cc3)c2o1 [compound of Ex. 73, 1-[3-({4-[4,5-difluoro-2-(methoxymethyl)-1-benzofuran-7-yl]phenoxy}methyl)benzoyl]-L-proline]  65 nM

Molecular target: PPAR-α (Homo sapiens (Human), UniProt Q07869)
Sequence (Q07869 167-468): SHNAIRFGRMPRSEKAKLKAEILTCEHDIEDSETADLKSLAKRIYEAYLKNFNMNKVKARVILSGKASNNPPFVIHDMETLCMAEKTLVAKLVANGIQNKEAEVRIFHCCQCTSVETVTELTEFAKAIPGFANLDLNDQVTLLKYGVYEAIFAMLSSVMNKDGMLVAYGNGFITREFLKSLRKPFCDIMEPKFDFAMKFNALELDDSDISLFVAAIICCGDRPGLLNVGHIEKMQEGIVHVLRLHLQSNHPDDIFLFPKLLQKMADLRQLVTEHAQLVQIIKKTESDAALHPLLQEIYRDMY
Assay: Measurement of PPAR-α activity (GAL4 luciferase reporter assay in CV-1 cells)
Assay type: cell-based
Settings: 100(A/B), A = maximum activity at 3, 10, 30 and 100 μM, B = compound in WO/2011/058154 at 100 μM, read-out: PPARα relative fold induction (%)
Method: The PPAR-α activity was measured according to the published article (THE JOURNAL OF BIOLOGICAL CHEMISTRY Vol. 270, No. 22, 12953-12956, 1995).
Plasmids used for the PPAR-α activity measurement were constructed as follows. A luciferase expression plasmid (UASx5-TK-Luc) used was obtained by introducing a sequence, in which five yeast GAL4-binding sequences are linked in tandem, upstream of a thymidine kinase promoter of pTAL-Luc (Takara Bio Inc., 6252-1). A PPAR-α receptor expression plasmid (hGR-GAL4-hPPARα) used was obtained by introducing a human GR N-terminal region (1-76 aa), a yeast GAL4 DNA-binding region (1-147 aa), and a PPARα ligand-binding region (167-468 aa) between a Not I site and a Sal I site of pExchange-1 Core Vector (Invitrogen Corporation, 211176).
A reporter assay was conducted by the following method using Cercopithecus aethiops kidney-derived CV-1 cells. The CV-1 cells were seeded in a 96-well plate (Thermo Fisher Scientific Inc., 4938) at 2×10^4 cells/well using a 10% FBS-containing DMEM (Nacalai Tesque, Inc., 0845874) medium. After culturing under conditions of 37° C. and 5% CO2 for 2 hours, the plasmids were transfected. Lipofectamine LTX (Invitrogen Corporation, 15338-100) was used for the transfection according to the attached manual. The plasmid solution was prepared by adding a mixture solution of the luciferase expression plasmid and the PPAR-α receptor expression plasmid to OPTI-MEM I (Invitrogen Corporation, 11058-021). After the transfection was conducted, the test compound was added, and cultured at 37° C. in the presence of 5% CO2 for 18 to 20 hours. After the culturing was completed, the luciferase activity was measured with Luminescensor JNR (ATTO) using Bright-Glo (Promega Corporation, E2620).
The fold induction of PPAR-α by the test compounds was calculated by the following method. For the compounds of Examples 1, 4, 5, 7, and 9, PPAR-α relative fold induction (%) was defined as 100 (A/B), where A represents the maximum value of PPAR-α activities with the test compound at 0.3 μM, 1 μM, 3 μM, 10 μM, 30 μM, and 100 μM, and B represents the PPAR-α activity with the compound in WO/2011/058154 at 100 μM. For the compounds of Examples 11, 15, 19, 22, 26, and 32, PPAR-α relative fold induction (%) was defined as 100 (A/B), where A represents the maximum value of PPAR-α activities with the test compound at 3 μM, 10 μM, 30 μM, and 100 μM, and B represents the PPAR-α activity with the compound in WO/2011/058154 at 100 μM.

`O=C(O)[C@@H]1CCCN1C(=O)c1cccc(COc2ccc(-c3cc(F)cc4c3OCC=C4)cc2)c1` [compound of Ex. 11] gave an Emax of 18%.
